Here are results for eight compounds from ChEMBL document CHEMBL1201862, “PubChem BioAssay data set” (2004).

In test [1] the target is Luciferin 4-monooxygenase (Photinus pyralis, UniProt P08659). Nature of the test: inhibition of purified Photinus pyralis luciferase – biochemical, luminescence, dose response (AID 1891).
Test [2] in a line: Luminescence Cell-Based Dose Confirmation HTS to Identify Inhibitors of Platelet Dense Granule Release. [Related pubchem assays: 1663 (Primary HTS), 1678 (Summary of Project)]. It counts as functional.
The next test has as its target T1, Caspase-6 (Homo sapiens, UniProt P55212).
T1 sequence (P55212 whole entry): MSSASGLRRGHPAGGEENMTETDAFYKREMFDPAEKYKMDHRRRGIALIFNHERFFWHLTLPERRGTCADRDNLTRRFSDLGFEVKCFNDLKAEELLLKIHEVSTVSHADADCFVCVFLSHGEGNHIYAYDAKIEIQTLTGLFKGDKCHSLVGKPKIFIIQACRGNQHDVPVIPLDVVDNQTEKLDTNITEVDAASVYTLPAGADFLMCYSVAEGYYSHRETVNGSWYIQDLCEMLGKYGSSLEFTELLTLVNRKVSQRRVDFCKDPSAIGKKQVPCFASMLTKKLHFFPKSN
Put plainly: inhibition of CASP6 peptide cleavage – biochemical, VEID-R110 fluorescence, cherry-pick, dose response (AID 720632).

Test [3] addresses T2, Carboxy-terminal domain RNA polymerase II polypeptide A small phosphatase 1 (Homo sapiens, UniProt Q9GZU7).
T2 sequence (Q9GZU7 whole entry): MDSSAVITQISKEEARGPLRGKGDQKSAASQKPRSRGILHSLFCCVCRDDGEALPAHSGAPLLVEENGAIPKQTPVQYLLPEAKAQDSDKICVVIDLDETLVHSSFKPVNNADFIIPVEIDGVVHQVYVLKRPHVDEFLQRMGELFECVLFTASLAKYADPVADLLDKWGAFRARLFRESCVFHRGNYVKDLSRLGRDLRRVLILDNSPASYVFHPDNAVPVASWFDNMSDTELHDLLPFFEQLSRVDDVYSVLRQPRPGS
Put plainly: CTDSP1 inhibitors, concentration-response, biochemical, absorbance readout, ultra-high-throughput screen actives (AID 540297). It counts as functional.

Another test can be described thus: cells. The format is functional, cell-based. As to conditions: HEK-CNG.
Test [4] in a line: reduction of Shn3 3'UTR-driven luciferase in osteoblasts – cell-based, Clone20 osteoblasts, firefly luciferase, cherry-picked, dose response (AID 624132).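 Further: firefly luciferase luminescence from reporter carrying the Shn3 3'UTR in osteoblasts.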 It counts as functional.
The subject of a further test is INS1. Put plainly: INS-1E survival protection against cytokine death – cell-based, luminescence, retest, dose response (AID 449756).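 Further: cell death triggered by IL-1 beta plus TNF-alpha plus IFN-gamma mixture; protective hits raise ATP signal compared with cytokine alone wells.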 It counts as functional. As to conditions: Rattus norvegicus.
The next test has as its target T3, Galanin receptor type 3 (Homo sapiens, UniProt O60755).
T3 sequence (O60755 whole entry): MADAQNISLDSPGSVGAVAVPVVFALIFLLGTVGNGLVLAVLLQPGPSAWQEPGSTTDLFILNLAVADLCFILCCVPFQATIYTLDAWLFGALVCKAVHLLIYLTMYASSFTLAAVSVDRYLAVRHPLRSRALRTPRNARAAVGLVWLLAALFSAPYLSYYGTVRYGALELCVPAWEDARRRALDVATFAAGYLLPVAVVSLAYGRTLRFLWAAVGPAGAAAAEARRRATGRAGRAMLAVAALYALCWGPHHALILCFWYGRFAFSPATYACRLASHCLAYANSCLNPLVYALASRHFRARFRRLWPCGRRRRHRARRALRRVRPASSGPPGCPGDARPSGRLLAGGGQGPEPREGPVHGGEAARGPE
Nature of the test: Fluorescence-based cell-based primary high throughput dose response assay to identify antagonists of the Galanin Receptor 3 (GalR3). It counts as functional.

A short description of test [5]: loss of viability in HepG2 cells – cell-based, CellTiter-Glo, cherry-picked, cytotoxicity control for Shn3 inhibitor project, dose response (AID 624134). The format is functional. (In general: ATP-based viability assays read luminescence as a measure of living cells.)
Test [6] in a line: non-specific 3'UTR reporter inhibition in Clone20-Shn3RL – cell-based, Renilla luciferase, cherry-picked, counter-screen for Shn3 inhibitor project, dose response (AID 624133). The format is functional.
For test [7], the target named is T4, Tyrosyl-DNA phosphodiesterase 2 (Homo sapiens, UniProt O95551).
T4 sequence (O95551 whole entry): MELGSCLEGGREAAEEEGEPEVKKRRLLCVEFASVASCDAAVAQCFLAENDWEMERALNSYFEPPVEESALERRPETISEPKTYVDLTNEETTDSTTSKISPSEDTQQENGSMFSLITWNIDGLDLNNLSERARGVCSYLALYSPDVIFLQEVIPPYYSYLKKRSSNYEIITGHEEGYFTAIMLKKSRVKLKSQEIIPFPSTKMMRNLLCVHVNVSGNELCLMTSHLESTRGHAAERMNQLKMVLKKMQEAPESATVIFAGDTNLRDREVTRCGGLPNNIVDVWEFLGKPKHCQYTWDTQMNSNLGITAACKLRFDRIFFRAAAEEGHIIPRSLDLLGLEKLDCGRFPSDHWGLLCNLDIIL
Nature of the test: potency against TDP2 phosphodiesterase activity – biochemical, epi absorbance, IC50, dose response (AID 743297).

Test [8] can be described thus: HIV-1 Vif–A3G interaction blockers – biochemical, TR-FRET, GST-Vif 1-94, biotin-A3G peptide, dose response retest, primary screen (AID 1117319).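 Further: TR-FRET signal of purified GST-Vif binding a biotinylated A3G peptide; inhibitors lower the FRET signal by blocking Vif and A3G binding.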 It counts as functional. (In general: TR-FRET usually uses a lanthanide donor and a delayed reading to cut background.)
A short description of test [9]: inhibition of ADAM10 peptide cleavage – biochemical, FRET peptide substrate, recombinant human ADAM10, selectivity assay for ADAM17 exosite inhibitor project, dose response (AID 743259).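 Further: ADAM10 enzyme cleaving a FRET peptide substrate.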
Test [10] addresses Disintegrin and metalloproteinase domain-containing protein 17 (Homo sapiens, UniProt P78536). Put plainly: exosite inhibitors of ADAM17, dose response, biochemical (AID 743260).
The next test has as its target Paired box protein Pax-8 (Homo sapiens, UniProt Q06710). Nature of the test: PAX8 transcriptional activity inhibition in RMG-I – RMG-I cells, luciferase, cherry-pick, dose response (AID 687027).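 Further: luciferase reporter driven by Pax8 target thyroperoxidase promoter measured by SteadyGlo luminescence.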 The format is functional, cell-based.
Test [11] is described as follows: A2780 cell killing – plate reader, dry powder samples, cytotoxicity control, dose response (AID 743046). It counts as functional, cell-based.

Molecules are shown by their SMILES. Active and inactive are the calls of the source.

Chain of Disintegrin and metalloproteinase domain-containing protein 17 (P78536 whole entry, the tested form may be a part): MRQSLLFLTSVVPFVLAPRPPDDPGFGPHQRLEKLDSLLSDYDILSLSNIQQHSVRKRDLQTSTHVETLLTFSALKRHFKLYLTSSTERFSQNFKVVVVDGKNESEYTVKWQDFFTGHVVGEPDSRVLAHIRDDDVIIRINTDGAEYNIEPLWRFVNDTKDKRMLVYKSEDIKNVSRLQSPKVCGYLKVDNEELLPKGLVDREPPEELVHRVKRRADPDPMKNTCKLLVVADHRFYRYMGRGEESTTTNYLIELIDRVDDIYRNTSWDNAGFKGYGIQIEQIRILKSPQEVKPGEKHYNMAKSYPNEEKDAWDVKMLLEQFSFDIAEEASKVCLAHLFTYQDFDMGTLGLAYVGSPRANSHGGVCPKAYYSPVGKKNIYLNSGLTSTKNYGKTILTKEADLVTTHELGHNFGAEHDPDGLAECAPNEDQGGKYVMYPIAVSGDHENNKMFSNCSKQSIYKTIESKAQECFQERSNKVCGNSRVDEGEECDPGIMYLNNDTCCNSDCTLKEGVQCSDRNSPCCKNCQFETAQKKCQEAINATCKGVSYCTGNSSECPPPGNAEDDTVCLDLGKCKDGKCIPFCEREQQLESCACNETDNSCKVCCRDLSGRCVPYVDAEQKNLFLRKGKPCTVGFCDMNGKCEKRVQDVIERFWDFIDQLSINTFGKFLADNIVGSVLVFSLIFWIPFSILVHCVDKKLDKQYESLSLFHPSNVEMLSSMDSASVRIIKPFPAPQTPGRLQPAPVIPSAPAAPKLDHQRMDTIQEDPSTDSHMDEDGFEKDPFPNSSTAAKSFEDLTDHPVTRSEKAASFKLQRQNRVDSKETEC
Chain of Paired box protein Pax-8 (Q06710 whole entry): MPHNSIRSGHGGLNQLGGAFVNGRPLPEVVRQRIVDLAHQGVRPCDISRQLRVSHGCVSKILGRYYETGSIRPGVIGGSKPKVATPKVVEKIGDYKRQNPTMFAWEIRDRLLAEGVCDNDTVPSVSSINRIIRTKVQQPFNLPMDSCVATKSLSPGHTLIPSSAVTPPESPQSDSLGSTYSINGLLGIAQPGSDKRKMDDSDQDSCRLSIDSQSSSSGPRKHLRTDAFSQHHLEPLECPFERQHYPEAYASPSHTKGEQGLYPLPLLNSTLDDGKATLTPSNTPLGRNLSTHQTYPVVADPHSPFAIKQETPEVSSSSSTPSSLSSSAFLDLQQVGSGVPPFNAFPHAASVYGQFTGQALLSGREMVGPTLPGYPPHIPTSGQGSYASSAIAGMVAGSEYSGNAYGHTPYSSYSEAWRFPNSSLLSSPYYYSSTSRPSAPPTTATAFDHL
Chain of Luciferin 4-monooxygenase (P08659 whole entry): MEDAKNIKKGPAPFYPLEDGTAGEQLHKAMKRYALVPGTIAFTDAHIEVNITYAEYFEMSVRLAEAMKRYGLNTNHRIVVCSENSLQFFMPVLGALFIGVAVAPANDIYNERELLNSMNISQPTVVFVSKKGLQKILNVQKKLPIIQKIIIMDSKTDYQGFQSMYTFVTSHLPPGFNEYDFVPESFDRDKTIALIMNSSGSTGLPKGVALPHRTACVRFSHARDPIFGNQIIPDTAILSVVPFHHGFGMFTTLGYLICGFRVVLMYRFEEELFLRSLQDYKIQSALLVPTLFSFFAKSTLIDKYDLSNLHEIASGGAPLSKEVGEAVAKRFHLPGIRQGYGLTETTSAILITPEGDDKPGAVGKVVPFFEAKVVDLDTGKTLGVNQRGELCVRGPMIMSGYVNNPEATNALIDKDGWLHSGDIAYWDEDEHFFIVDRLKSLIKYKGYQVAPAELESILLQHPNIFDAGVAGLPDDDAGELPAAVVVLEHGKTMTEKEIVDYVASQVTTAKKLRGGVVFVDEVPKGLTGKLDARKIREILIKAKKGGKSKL

The EC50 is the concentration that produces a half-maximal response. As usually defined, the AC50 is the midpoint of the concentration-response curve, whichever way the signal moves. For `O=C(O)C1C2C=CC(C2)C1C(=O)NCc1cccs1` (stereo unspecified), the EC50 in [1] and in [2] was > 112 µM (not active) in each case. For the same compound, the AC50 on Caspase-6 is 14.8 µM (active).
What is called IC50 is the concentration that inhibits the measured activity by half. For `COc1ccc(S(=O)(=O)NNC(=O)Cc2csc(C)n2)cc1[N+](=O)[O-]`, the IC50 in test [3] was 16.3 µM (active). Moreover, the AC50 on Caspase-6 was 8.98 µM (active).
Consider `NC(=O)c1ccc(N2CCN(S(=O)(=O)c3cccs3)CC2)c([N+](=O)[O-])c1`, for which the EC50 in the test “cells” is > 29.9 µM (inactive). Further, the AC50 is 0.305 µM (active) in [4], 3.67 µM (active) in the test with INS1, 2.54 µM (active) in test [5] and 6.21 µM (active) in test [6]. In addition, the IC50 at Galanin receptor type 3 was 1.09 µM (active).
As for `Clc1ccccc1N=Nc1ccccn1`, the IC50 is > 128 µM (inactive) in test [7] and > 100 µM (active) in test [8].
As to `COc1cccc(C(=O)c2c(-c3ccccc3)ncc3cc(OC)c(OC)cc23)c1`, the IC50 in [9] and in test [10] was > 69.4 µM (inactive) in each case.
For the compound `Cc1ccc(S(=O)(=O)N2CCC(=O)N([C@H](COC(=O)Nc3ccccc3)Cc3ccccc3)CC2)cc1`, the IC50 in test [9] is > 7.72 µM (active); in [10], > 69.4 µM (inactive).
On to `C[C@@H]1CN([C@H](C)CO)C(=O)c2c(c3ccccc3n2C)-c2ccccc2CO[C@H]1CN(C)S(=O)(=O)c1cccc(F)c1`, for which the figures for the AC50 (on Paired box protein Pax-8; in test [11]) were 19.2 µM (active) and 4.51 µM (active), respectively.
On to `Cc1cccc(NC(=O)CSc2nnc(SCc3ccc(Cl)cc3)s2)c1`, for which the IC50 in [9] and in test [10] was > 69.4 µM (inactive) throughout.
